Source: patent US20060199240A1, “Biosensor and method comprising enzymes immobilized on semiconductors” (Yissum Research Development Company of the Hebrew …, priority 2002, published 2006)

B1: AChE (Homo sapiens) (protein)
chain: EGREDAELLVTVRGGRLRGIRLKTPGGPVSAFLGIPFAEPPMGPRRFLPPEPKQPWSGVVDATTFQSVCYQYVDTLYPGFEGTEMWNPNRELSEDCLYLNVWTPYPRPTSPTPVLVWIYGGGFYSGASSLDVYDGRFLVQAERTVLVSMNYRVGAFGFLALPGSREAPGNVGLLDQRLALQWVQENVAAFGGDPTSVTLFGESAGAASVGMHLLSPPSRGLFHRAVLQSGAPNGPWATVGMGEARRRATQLAHLVGCPPGGTGGNDTELVACLRTRPAQVLVNHEWHVLPQESVFRFSFVPVVDGDFLSDTPEALINAGDFHGLQVLVGVVKDEGSYFLVYGAPGFSKDNESLISRAEFLAGVRVGVPQVSDLAAEAVVLHYTDWLHPEDPARLREALSDVVGDHNVVCPVAQLAGRLAAQGARVYAYVFEHRASTLSWPLWMGVPHGYEIEFIFGIPLDPSRNYTAEEKIFAQRLMRYWANFARTGDPNEPRDPKAPQWPPYTAGAQQYVSLDLRPLEVRRGLRAQACAFWNRFLPKLLSATDTLDEAERQWKAEFHRWSSYMVHWKNQFDHYSKQDRCSDL

How the values were obtained:
[1] = molecular target: acetylcholine esterase (AChE) (Electrophorus electricus, UniProt O42275); assay type: biochemical
acetylcholine esterase (AChE), sequence (O42275 24-633): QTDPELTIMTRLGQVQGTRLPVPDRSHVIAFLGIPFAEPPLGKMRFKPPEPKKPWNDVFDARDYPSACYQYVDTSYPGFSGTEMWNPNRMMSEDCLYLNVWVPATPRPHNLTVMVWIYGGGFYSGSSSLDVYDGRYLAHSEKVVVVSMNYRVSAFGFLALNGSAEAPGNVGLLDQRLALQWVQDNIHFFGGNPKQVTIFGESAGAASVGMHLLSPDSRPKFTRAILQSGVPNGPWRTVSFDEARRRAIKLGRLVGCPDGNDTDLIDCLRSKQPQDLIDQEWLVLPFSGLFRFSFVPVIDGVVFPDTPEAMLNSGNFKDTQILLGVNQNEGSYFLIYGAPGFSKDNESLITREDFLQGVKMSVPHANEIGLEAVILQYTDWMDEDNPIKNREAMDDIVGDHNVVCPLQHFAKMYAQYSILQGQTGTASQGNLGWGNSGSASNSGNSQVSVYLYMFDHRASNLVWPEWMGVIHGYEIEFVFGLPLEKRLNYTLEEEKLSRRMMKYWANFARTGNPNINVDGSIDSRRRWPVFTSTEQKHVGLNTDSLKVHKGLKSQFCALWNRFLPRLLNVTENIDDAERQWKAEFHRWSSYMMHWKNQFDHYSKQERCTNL
Protocol: Data were recorded in 0.1 M phosphate buffer, pH=8.1, under argon.
One of the products of the hydrolysis of acetylthiocholine is thiocholine (2), which is an electron donor.
FIG. 2A depicts the photocurrent action spectra resulting in the photoirradiation of the system in the presence of different concentrations of acetylthiocholine. […] Thus, the photocurrent generation in the system is attributed to the AChE catalyzed hydrolysis of acetylthiocholine, (1), to acetate and thiocholine, (2). The latter product acts as donor for the holes generated in the valence band upon excitation of the CdS nanoparticles. Thus, oxidation of thiocholine by the holes eliminates the electron-hole recombination, and thus a steady-state photocurrent is generated.

[2] = substrate: CC(=O)SCC[N+](C)(C)C; assay: KM of AChE towards acetylthiocholine in solution; assay type: biochemical; conditions: other: AChE in solution
Protocol: The KM value of the AChE linked to the CdS nanoparticles towards acetylthiocholine, (1), is KM=5 mM. This value is higher than the KM=0.13 mM of ACHE and (1) in solution. The higher KM value for the nanoparticle-immobilized ACHE may be attributed to slight deactivation and structural perturbation of the biocatalyst as a result of surface linkage.

Molecule | effect on photocurrent with increasing concentration [1] | mode of inhibition [1] | reversibility: photocurrent after washing off the inhibitor [1] | Km [2] [µM]
C=CC[N+](C)(C)c1ccc(CCC(=O)CCc2ccc([N+](C)(C)CC=C)cc2)cc1 [(3), 1,5-bis(4-allyldimethylammoniumphenyl)pentane-3-one dibromide] | decreases the photocurrent | competitive inhibitor | almost restores the initial photocurrent | –
B1 | – | – | – | 130
